# Tests used:
# [1] = tested on: rabbit serum obtained by immunizing a rabbit with the SARS-CoV strain Frankfurt 1; assay type: binding; design: Binding of a rabbit serum to linear peptides / Binding of a rabbit serum to looped peptides / Rabbit serum linear peptides / Rabbit serum looped peptides / Binding of a rabbit serum to linear peptides of protein N of SARS-CoV Urbani (Rabbit serum linear peptides) / Binding of a rabbit serum to looped/cyclic peptides of protein N of SARS-CoV Urbani (Rabbit serum looped peptides): unit not given here
# [2] = tested on: antibodies in sera from SARS patients (sera 1a, 1b, 2, 6, 37, 62, London, SARS-yellow, SARS-green); assay type: binding, human; design: Binding of serum 6 to linear peptides of protein X1 of SARS-CoV Urbani / Binding of serum 37 to linear peptides of protein X1 of SARS-CoV Urbani / Binding of serum 6 to looped/cyclic peptide (PEPSCAN-ELISA) / Binding of serum 37 to looped/cyclic peptide (PEPSCAN-ELISA) / Binding of serum 37 to looped/cyclic peptides of protein X1 of SARS-CoV Urbani / Binding of serum 6 to linear peptides of protein X2 / Binding of serum 37 to linear peptides of protein X2 / Binding of serum 37 to looped/cyclic peptides of protein X2 of SARS-CoV Urbani / Binding of serum 6 to linear peptides of protein M of SARS-CoV Urbani / Binding of serum 37 to linear peptides of protein M of SARS-CoV Urbani / Binding of serum 6 to looped/cyclic peptides of protein M of SARS-CoV Urbani / Binding of serum 37 to looped/cyclic peptides of protein M of SARS-CoV Urbani / Binding of serum 6 to linear peptides of protein X3 of SARS-CoV Urbani / Binding of serum 37 to linear peptides of protein X3 of SARS-CoV Urbani / Binding of serum 37 to looped/cyclic peptides of protein X3 of SARS-CoV Urbani / Binding of serum 6 to linear peptides of protein X4 of SARS-CoV Urbani / Binding of serum 37 to linear peptides of protein X4 of SARS-CoV Urbani / Binding of serum 37 to looped/cyclic peptides of protein X4 of SARS-CoV Urbani / Binding of serum 6 to linear peptides of protein X5 of SARS-CoV Urbani / Binding of serum 37 to linear peptides of protein X5 of SARS-CoV Urbani / Binding of serum 37 to looped/cyclic peptides of protein X5 of SARS-CoV Urbani / Binding of serum 6 to linear peptides of protein N of SARS-CoV Urbani / Binding of serum 37 to linear peptides of protein N of SARS-CoV Urbani / Binding of serum 6 to linear peptide (PEPSCAN-ELISA) / Binding of serum 1a to looped/cyclic peptides of protein N of SARS-CoV Urbani / Binding of serum 1b to looped/cyclic peptides of protein N of SARS-CoV Urbani / Binding of serum 2 to looped/cyclic peptides of protein N of SARS-CoV Urbani / Binding of serum 6 to looped/cyclic peptides of protein N of SARS-CoV Urbani / Binding of serum 37 to looped/cyclic peptides of protein N of SARS-CoV Urbani / Binding of serum 62 to looped/cyclic peptides of protein N of SARS-CoV Urbani / Binding of serum London to looped/cyclic peptides of protein N of SARS-CoV Urbani / Binding of serum SARS-green to looped/cyclic peptides of protein N of SARS-CoV Urbani: unit not given here
# [3] = tested on: control sera (pooled serum of ten healthy LUMC hospital workers; commercial negative donor pooled serum from the Dutch bloodbank); assay type: binding, human; design: Binding of Control serum LUMC to linear peptides / Binding of Control serum Blood-bank to linear peptides / Binding of Control serum LUMC to looped peptides / Binding of Control Serum Blood-Bank to Looped peptides / Binding of Control serum LUMC to linear peptides of the protein M of SARS-CoV Urbani / Binding of Control serum Blood-bank to linear peptides of the protein M of SARS-CoV Urbani / Binding of Control serum LUMC to looped peptides of the protein M of SARS-CoV Urbani / Binding of Control Serum Blood-Bank to Looped peptides of the protein M of SARS-CoV Urbani: unit not given here
sequence,measurement,setting,value
YMAISPKFTTSLSLH,Binding of a rabbit serum to linear peptides,[1],0.3
same,Binding of a rabbit serum to looped peptides,[1],0.5
same,Binding of serum 1a to linear peptides of protein X2,[2],0.7
same,Binding of serum 1a to looped/cyclic peptides of protein X2 of SARS-CoV Urbani,[2],0.6
same,Binding of serum 1b to linear peptides of protein X2,[2],0.6
same,Binding of serum 1b to looped/cyclic peptides of protein X2 of SARS-CoV Urbani,[2],0.6
same,Binding of serum 2 to linear peptides of protein X2,[2],0.4
same,Binding of serum 2 to looped/cyclic peptides of protein X2 of SARS-CoV Urbani,[2],0.4
same,Binding of serum 6 to linear peptides of protein X2,[2],0.4
same,Binding of serum 6 to looped/cyclic peptides of protein X2 of SARS-CoV Urbani,[2],0.5
same,Binding of serum 37 to linear peptides of protein X2,[2],0.6
same,Binding of serum 37 to looped/cyclic peptides of protein X2 of SARS-CoV Urbani,[2],0.5
same,Binding of serum 62 to linear peptides of protein X2,[2],0.6
same,Binding of serum 62 to looped/cyclic peptides of protein X2 of SARS-CoV Urbani,[2],0.6
same,Binding of serum London to linear peptides of protein X2,[2],0.4
same,Binding of serum London to looped/cyclic peptides of protein X2 of SARS-CoV Urbani,[2],0.4
same,Binding of serum SARS-green to linear peptides of protein X2,[2],0.5
same,Binding of serum SARS-green to looped/cyclic peptides of protein X2 of SARS-CoV Urbani,[2],0.4
same,Binding of serum SARS-yellow to linear peptides of protein X2,[2],0.6
same,Binding of serum SARS-yellow to looped/cyclic peptides of protein X2 of SARS-CoV Urbani,[2],0.4
same,Binding of Control Serum Blood-Bank to Looped peptides,[3],0.7
same,Binding of Control serum Blood-bank to linear peptides,[3],0.7
same,Binding of Control serum LUMC to linear peptides,[3],0.4
same,Binding of Control serum LUMC to looped peptides,[3],0.7
VVVHGYFTEVYYQLE,Binding of a rabbit serum to linear peptides,[1],0.1
same,Binding of a rabbit serum to looped peptides,[1],0.6
same,Binding of serum 1a to linear peptides of protein X1 of SARS-CoV Urbani,[2],0.8
same,Binding of serum 1a to looped/cyclic peptides of protein X1 of SARS-CoV Urbani,[2],0.6
same,Binding of serum 1b to linear peptides of protein X1 of SARS-CoV Urbani,[2],0.6
same,Binding of serum 1b to looped/cyclic peptides of protein X1 of SARS-CoV Urbani,[2],0.5
same,Binding of serum 2 to linear peptides of protein X1 of SARS-CoV Urbani,[2],0.6
same,Binding of serum 2 to looped/cyclic peptides of protein X1 of SARS-CoV Urbani,[2],0.5
same,Binding of serum 6 to linear peptides of protein X1 of SARS-CoV Urbani,[2],0.4
same,Binding of serum 6 to looped/cyclic peptides of protein X1 of SARS-CoV Urbani,[2],0.3
same,Binding of serum 37 to linear peptides of protein X1 of SARS-CoV Urbani,[2],0.6
same,Binding of serum 37 to looped/cyclic peptides of protein X1 of SARS-CoV Urbani,[2],0.5
same,Binding of serum 62 to linear peptides of protein X1 of SARS-CoV Urbani,[2],0.4
same,Binding of serum 62 to looped/cyclic peptides of protein X1 of SARS-CoV Urbani,[2],0.5
same,Binding of serum London to linear peptides of protein X1 of SARS-CoV Urbani,[2],0.2
same,Binding of serum London to looped/cyclic peptides of protein X1 of SARS-CoV Urbani,[2],0.2
same,Binding of serum SARS-green to linear peptides of protein X1 of SARS-CoV Urbani,[2],0.3
same,Binding of serum SARS-green to looped/cyclic peptides of protein X1 of SARS-CoV Urbani,[2],0.3
same,Binding of serum SARS-yellow to linear peptides of protein X1 of SARS-CoV Urbani,[2],0.3
same,Binding of serum SARS-yellow to looped/cyclic peptides of protein X1 of SARS-CoV Urbani,[2],0.4
same,Binding of Control Serum Blood-Bank to Looped peptides,[3],0.4
same,Binding of Control serum Blood-bank to linear peptides,[3],0.5
same,Binding of Control serum LUMC to linear peptides,[3],1.1
same,Binding of Control serum LUMC to looped peptides,[3],0.7

# Source: patent publication US20070128217A1 (priority 2003, published 2007)
